Laboratory results taken from patent US7754709B2 (Solvay Pharmaceuticals BV, priority 2003, dated 2010).

Legend:
Type in all cases: cell-based
[1] = target: T1, 17β-hydroxysteroid dehydrogenase type 1 (Homo sapiens, UniProt P14061); experiment: Inhibition of 17β-HSD type 1 in MCF-7 cells stably expressing the isoenzyme (HPLC, tritium labeled estrone); details: 2 nM estrone, read-out: % Inhibition of the 17β-HSD enzyme type 1 (HSD1); for inhibition at 1 µM: MCF7, 1 μM compound; for inhibition at 10 µM: MCF7, 10 μM compound
T1 construct: expressed in transfected cells; host or cells: MCF-7
T1 sequence (P14061 1-328): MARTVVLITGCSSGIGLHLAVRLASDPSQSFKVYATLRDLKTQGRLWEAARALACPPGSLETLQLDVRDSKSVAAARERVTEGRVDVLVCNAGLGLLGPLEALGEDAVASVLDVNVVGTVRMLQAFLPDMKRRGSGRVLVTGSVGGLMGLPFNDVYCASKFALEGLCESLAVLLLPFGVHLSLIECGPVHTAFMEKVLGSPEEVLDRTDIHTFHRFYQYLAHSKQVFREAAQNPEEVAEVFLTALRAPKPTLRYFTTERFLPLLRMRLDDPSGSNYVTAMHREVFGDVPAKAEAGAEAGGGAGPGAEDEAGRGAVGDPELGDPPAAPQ
Text: (§1) Biological Testing Materials and Methods 1. Inhibition of the 17β-hydroxysteroid dehydrogenase type 1, type 2 and type 3 enzyme
(§2) The compounds were screened in respect of 17β-HSD enzyme activity in vitro on established M CF-7 cell lines, each stably expressing one of the respective 17β-HSD isoenzymes. The interconversion of substrate by each isoenzyme and the 17β-HSD inhibiting activity of chemical compounds in these cell lines were detected by HPLC system.
(§3) Varying amounts of the test compounds were incubated in the growth medium of the 17β-HSD expressing cells together tritium labeled substrate (2 nM estrone for 17β-HSD type 1; 2 nM estradiol for 17β-HSD type 2; and 2 nM androstenedione for 17β-HSD type 3). The medium samples were removed after exact incubation time and the reaction is stopped by trichloroacetic acid (TCA). The samples were analyzed by HPLC-coupled flow scintillation analysis.
(§4) For each enzyme type, the HSD-inhibiting activity of an individual test compound was calculated by comparing the conversion of a control sample without any test compound (referred to as “Negative Control”) to the (reduced) conversion of the test sample containing the particular compound to be tested (referred to as “Test Sample”).
(§5) Two concentrations of each compound were used. The number of the compound refers to the numbers indicated in the Experimental Section.

[2] = target: T2, 17β-hydroxysteroid dehydrogenase type 2 (Homo sapiens, UniProt P37059); experiment: Inhibition of 17β-HSD type 2 in MCF-7 cells stably expressing the isoenzyme (HPLC, tritium labeled estradiol); details: 2 nM estradiol, read-out: % Inhibition of the 17β-HSD enzyme type 2 (HSD2); for inhibition at 1 µM: MCF7, 1 μM compound; for inhibition at 10 µM: MCF7, 10 μM compound
T2 construct: expressed in transfected cells; host or cells: MCF-7
T2 sequence (P37059 1-387): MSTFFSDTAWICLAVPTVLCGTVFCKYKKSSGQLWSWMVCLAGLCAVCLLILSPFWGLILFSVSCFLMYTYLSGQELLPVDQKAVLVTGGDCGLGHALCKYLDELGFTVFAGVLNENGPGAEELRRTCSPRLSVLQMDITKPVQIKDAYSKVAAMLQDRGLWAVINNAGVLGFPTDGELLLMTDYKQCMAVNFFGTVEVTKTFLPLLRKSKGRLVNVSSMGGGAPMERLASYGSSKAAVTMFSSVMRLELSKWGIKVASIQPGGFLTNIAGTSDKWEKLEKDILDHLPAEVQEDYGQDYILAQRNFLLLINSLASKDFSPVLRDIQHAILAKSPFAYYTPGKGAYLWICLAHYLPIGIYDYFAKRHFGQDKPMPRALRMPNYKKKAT
Text: as §1, §2, §3, §4, §5

[3] = target: T3, 17β-hydroxysteroid dehydrogenase type 3 (Homo sapiens, UniProt P37058); experiment: Inhibition of 17β-HSD type 3 in MCF-7 cells stably expressing the isoenzyme (HPLC, tritium labeled androstenedione); details: 2 nM androstenedione, read-out: % Inhibition of the 17β-HSD enzyme type 3 (HSD3); for inhibition at 1 µM: MCF7, 1 μM compound; for inhibition at 10 µM: MCF7, 10 μM compound
T3 construct: expressed in transfected cells; host or cells: MCF-7
T3 sequence (P37058 1-310): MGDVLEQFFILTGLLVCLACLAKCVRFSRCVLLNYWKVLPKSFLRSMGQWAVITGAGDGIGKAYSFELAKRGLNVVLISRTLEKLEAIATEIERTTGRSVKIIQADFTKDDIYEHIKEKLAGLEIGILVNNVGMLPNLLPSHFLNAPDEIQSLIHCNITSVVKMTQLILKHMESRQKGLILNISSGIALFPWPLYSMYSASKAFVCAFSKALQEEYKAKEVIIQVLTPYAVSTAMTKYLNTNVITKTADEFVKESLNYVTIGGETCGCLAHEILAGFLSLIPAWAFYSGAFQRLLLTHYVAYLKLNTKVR
Text: as §1, §2, §3, §4, §5

Compound	inhibition at 1 µM [1] [%]	inhibition at 10 µM [1] [%]	inhibition at 1 µM [2] [%]	inhibition at 10 µM [2] [%]	inhibition at 1 µM [3] [%]	inhibition at 10 µM [3] [%]
O=CC1=C(Cl)c2sc3nc4n(c(=O)c3c2CC1)CCCCCC4C=O (stereo not drawn) [Compound 11, 4-Chloro-1,2,7,9, 10,11,12,14-octahydro-14-oxo-8H-[1]benzothieno[2′,3′:4,5]pyrimido-[1,2-a]-azocine-3,7-dicarbaldehyde]	4.7	51.1	16.7	28.3	7.3	31.7
O=Cc1ccc2c(sc3nc4n(c(=O)c32)CCCCC4)c1Sc1ccccc1 [Compound 12, 7,8,9,10,11,13-Hexahydro-13-oxo-4-(phenylthio)-[1]benzothieno[2′,3′:4,5]pyrimido[1,2-a]azepine-3-carbaldehyde]	15.1	87.9	7	8.9	8.6	25.5
O=c1c2c3c(sc2nc2n1CCCCCC2)C(O)CCC3 (stereo not drawn) [Compound 13, 1,2,3,4,7,8,9,10,11,12-Decahydro-4-hydroxy-14H-[1]benzothieno[2′,3′:4,5]pyrimido[1,2-a]azocin-14-one]	5	20	1.7	18.6	-2.2	11.7

Further lines, results first:

inhibition at 1 µM [1] [%]	inhibition at 10 µM [1] [%]	inhibition at 1 µM [2] [%]	inhibition at 10 µM [2] [%]	inhibition at 1 µM [3] [%]	inhibition at 10 µM [3] [%]	Compound
74	100	8.9	18.6	10.5	100	CCCSC1=C(C=O)CCc2c1sc1nc3n(c(=O)c21)CCCCC3 [Compound 5c, 1,2,7,8,9,10,11,13-Octahydro-13-oxo-4-(propylthio)[1]benzothieno[2′,3′:4,5]-pyrimido-[1,2-a]azepine-3-carboxaldehyde]
54.1	100	8.2	15.1	32.6	72	CCCCSC1=C(C=O)CCc2c1sc1nc3n(c(=O)c21)CCCCC3 [Compound 5d, 1,2,7,8,9,10,11,13-Octahydro-13-oxo-4-(butylthio)[1]benzothieno[2′,3′:4,5]-pyrimido-[1,2-a]azepine-3-carboxaldehyde]
71.9	100	8.4	20.2	50.8	86.3	CC(C)SC1=C(C=O)CCc2c1sc1nc3n(c(=O)c21)CCCCC3 [Compound 5e, 1,2,7,8,9,10,11,13-Octahydro-13-oxo-4-(isopropylthio)[1]benzothieno[2′,3′:4,5]-pyrimido-[1,2-a]azepine-3-carboxaldehyde]
43.9	100	11.6	17.3	22.5	80.5	CCCSC1=C(C=O)CCc2c1sc1nc3n(c(=O)c21)CCCCCC3 [Compound 5i, 1,2,7,9,10,11,12,14-octahydro-14-oxo-4-(propylthio)-8H-[1]benzothieno[2′,3′:4,5]pyrimido-[1,2-a]-azocine-3-carbaldehyde]
51.8	100	11.6	42.5	45.9	48.9	O=c1c2c3c(sc2nc2n1CCCCC2)C(Sc1ccccc1)=C(CO)CC3 [Compound 6a, 1,2,7,8,9,10,11,13-Octahydro-13-oxo-4-(phenylthio)[1]benzothieno[2′,3′:4,5]-pyrimido-[1,2-a]azepine-3-hydroxymethyl]
47.7	82.4	37.5	36.7	20.4	38.1	CCCSC1=C(CO)CCc2c1sc1nc3n(c(=O)c21)CCCCC3 [Compound 6c, 1,2,8,9,10,11-Hexahydro-3-(hydroxymethyl)-4-(propylthio)-[1]benzothieno[2′,3′:4,5]-pyrimido-[1,2-a]azepine-13(7H)-one]
